In the supplement of paper PMC13380429:

Experiments:
[1] = system: A549-ACE2 infected with SARS-CoV-2; assay: cell count relative to DMSO; higher = less toxic; details: 24 h
Caco-2 [2] = assay: cell viability relative to DMSO; higher = less toxic; details: 72 h
Calu-3 [3] = assay: as above; details: 72 h
HepG2 [4] = assay: as above; details: 72 h
U2OS [5] = assay: as above; details: 72 h
Vero E6 [6] = assay: as above; details: 72 h
[7] = system: A549-ACE2 infected with SARS-CoV-2; assay: SARS-CoV-2 infection rate relative to DMSO; higher = more infection; details: 24 h
A549-ACE2 = assay: drug-induced phospholipidosis relative to tamoxifen; higher = more phospholipidosis
[8] = system: A549-ACE2 infected with SARS-CoV-2; assay: morphology score (similarity to uninfected cells); higher = more like uninfected cells; details: 24 h
Caco-2 [9] = assay: relative viability EC50 (midpoint between 100% and the lowest measured viability); higher = less toxic; details: 72 h
Calu-3 [10] = assay: as above; details: 72 h
HepG2 [11] = assay: as above; details: 72 h
U2OS [12] = assay: as above; details: 72 h
Vero E6 [13] = assay: as above; details: 72 h
Caco-2 [14] = assay: drug sensitivity score (DSS) for viability; higher = more toxic; extreme values may be limits of the assay; details: 72 h
Calu-3 [15] = assay: as above; details: 72 h
HepG2 [16] = assay: as above; details: 72 h
U2OS [17] = assay: as above; details: 72 h
Vero E6 [18] = assay: as above; details: 72 h

CC1(C)CC[C@]2(NC(=O)C(C)(F)F)CC[C@]3(C)[C@H](C(=O)C=C4[C@@]5(C)C=C(C#N)C(=O)C(C)(C)[C@@H]5CC[C@]43C)[C@@H]2C1 [Omaveloxolone (RTA-408)]
Details	SARS-CoV-2 infection rate, [7] [%]	cell count, [1] [%]	cell viability, Caco-2 [2] [%]	cell viability, Calu-3 [3] [%]	cell viability, HepG2 [4] [%]	cell viability, U2OS [5] [%]	cell viability, Vero E6 [6] [%]	morphology score, [8]
1 nM	–	–	100	99.6	97.6	96.8	107	–
10 nM	–	–	102	118	91.6	102	108	–
100 nM	–	–	85.7	90.7	83.6	98.7	103	–
0.3 µM	111	97	–	–	–	–	–	-0.26
1000 nM	–	–	32.3	23.6	1.2	1.9	7.7	–
3 µM	0	1	–	–	–	–	–	0.09
10000 nM	–	–	5.4	1.6	-0.3	-0.1	-0.1	–

A549-ACE2, 0.3 µM
Details	drug-induced phospholipidosis [%]
24 h	9.83
48 h	10.5
72 h	21.8

Details	drug sensitivity score	relative viability EC50 [nM]
Caco-2 [9]	–	450
Caco-2 [14]	14.5	–
Calu-3 [10]	–	452
Calu-3 [15]	15.4	–
HepG2 [11]	–	192
HepG2 [16]	20.7	–
U2OS [12]	–	321
U2OS [17]	17.9	–
Vero E6 [13]	–	410
Vero E6 [18]	16.6	–

COc1cc2ncnc(Sc3nnc(C)s3)c2cc1OC [SKLB1002]
Details	SARS-CoV-2 infection rate, [7] [%]	cell count, [1] [%]	cell viability, Caco-2 [2] [%]	cell viability, Calu-3 [3] [%]	cell viability, HepG2 [4] [%]	cell viability, U2OS [5] [%]	cell viability, Vero E6 [6] [%]	morphology score, [8]
1 nM	–	–	101	103	104	99.1	96.2	–
10 nM	–	–	92	99.2	99.6	99.4	94.8	–
100 nM	–	–	97.7	96.3	105	102	92.7	–
0.3 µM	105	102	–	–	–	–	–	-0.11
1000 nM	–	–	94.4	92.1	105	102	98.4	–
3 µM	105	102	–	–	–	–	–	-0.15
10 µM	106	97	–	–	–	–	–	0.01
10000 nM	–	–	73.7	107	59.1	88.3	87.8	–
30 µM	79	85	–	–	–	–	–	0.25

drug-induced phospholipidosis [%], A549-ACE2
Details	0.3 µM	0.833333 µM	3.33333 µM	6.66667 µM	10 µM	30 µM
24 h	7.29	1.02	4.5	10.7	22.8	44.1
48 h	7.01	-1.13	-0.08	3.84	12.5	–
72 h	8.05	-2.71	-0.571	-0.945	0.143	–

Details	drug sensitivity score	relative viability EC50 [nM]
Caco-2 [14]	1.9	–
Calu-3 [10]	–	> 10000
Calu-3 [15]	0	–
HepG2 [16]	1.7	–
U2OS [12]	–	> 10000
U2OS [17]	0	–
Vero E6 [13]	–	> 10000
Vero E6 [18]	0	–
